Assay results reported in patent US20070043110A1, “Nontoxic potentiation sensitization of ovarian cancer therapy by supplementary treatment with vitamins” (Summa Health System, priority 2001, published 2007).
Structures can show the parent of a compound that is named as a salt. Where two headings read alike, the source gives them in different places.

Legend:
J82 = assay: Antitumor activity by MTT assay, J82; settings: Homo sapiens
Description: (§1) The FIC index was used to evaluate the synergism of the vitamins. A FIC<1.0 indicates the combination is synergistic, while a FIC>1.0 indicates the combination is antagonistic. A FIC=1.0 indicates the combination is indifferent. […] During this time, two requests for humanitarian intervention were made.

RT4 = assay: Antitumor activity by MTT assay, RT4; settings: Homo sapiens
Description: as §1

SCaBER = assay: Antitumor activity by MTT assay, SCaBER; settings: Homo sapiens
Description: as §1

T24 = assay: Antitumor activity by MTT assay, T24; settings: Homo sapiens
Description: as §1

TCCSUP = assay: Antitumor activity by MTT assay, TCCSUP; settings: Homo sapiens, TCC-SUP
Description: as §1

MDA-MB-231 = assay: Antitumor activity by MTT assay, MDA-MB-231; settings: Homo sapiens
Description: as §1

Caki-1 = assay: Antitumor activity by MTT assay, Caki-1; settings: Homo sapiens
Description: as §1

MDAH 2774 cells = assay: Antitumor activity by MTT assay, MDAH 2774
Description: as §1

SKOV3 = assay: Antitumor activity by MTT assay, SKOV3; settings: Homo sapiens
Description: as §1

CWR22 = assay: Antitumor activity by MTT assay, CWR22; settings: Homo sapiens
Description: as §1

DU145 = assay: Antitumor activity by MTT assay, DU145; settings: Homo sapiens
Description: as §1

PC3 = assay: Antitumor activity by MTT assay, PC3; settings: Homo sapiens
Description: as §1

Tera-2 = assay: Antitumor activity by MTT assay, Tera-2; settings: Homo sapiens
Description: as §1

CAOV-3 cell line = assay: Cytotoxicity (CD50), CAOV-3; type: cell-based; settings: Homo sapiens
Description: as §1

ES-2 cell line = assay: Cytotoxicity (CD50), ES-2; type: cell-based; settings: Homo sapiens
Description: as §1

prostate cancer = assay: Randomized trial in prostate cancer patients, serum HCY and PSA; type: in vivo, human; parameters: Variation of Serum HCY (mean ± SD): unit not given here; settings: for difference in serum levels of homocysteine and PSA versus control group: individual vitamin treatment groups (Group 2 or Group 3) vs Group 4
Description: Recently a prospective, randomized trial was performed with 20 prostate cancer patients who had pathologically proven prostate cancer in advanced stages (M1) with osseous metastasis and resistance to hormone therapy. The patients were randomly distributed in four groups of five patients each. […] In Group 2, ascorbic acid was omitted. In Group 3, menadione was omitted. A placebo was administered to patients of Group 4. Only two treatment courses were tested in this study so that the immediate effects of the vitamins in a clinical model could be determined and compared to the immediate induction of autoschizis elicited by the vitamin combination in preclinical models. Homocysteine (a good marker of the number of tumor cells with sensitivity for early detection of tumor cell death induced by treatments) and prostate specific antigen (PSA) assays were performed in the four groups to obtain information about the tumor cell death induced by the treatments. Serum homocysteine (HCY) and PSA were measured the first day of each week (day 1, 8, 15, 22, 29, 36, and […] of the study). […] This fall in serum HCY was highly significant (p<<0.01) in all weekly measures after the first series (day 8-42). […] The reasons for the initial increase in serum PSA levels are unknown.

[1] = test system: murine transplantable liver tumor (TLT); settings: cited from earlier work
terminal cancer = settings: cited from earlier work
advanced cancer = settings: 10 grams given orally; cited from earlier work
[2] = 10 to 100 g twice per week; cited from earlier work
[3] = mouse, in vivo
hepatoma = settings: weekly i.p. 10 mg/2 mL for 4 weeks, cited from earlier work
tumor growth = settings: cited from earlier work
[4] = 400-500 mg/day over 3-5 consecutive days; cited from earlier work
[5] = cited from earlier work
advanced lung cancer = settings: cited from earlier work
gastrointestinal cancer = settings: VK3 with mitomycin C; 43 patients; cited from earlier work
[6] = bisulfite form; cited from earlier work
[7] = mice; cited from earlier work
[8] = read-out: Vitamins Alone, Vit C 50% Cytotoxic Dose
[9] = assay day 8, oral 7 day courses from day 1 and day 22, VC 5 g/m^2/day, VK3 50 mg/m^2/day, pretreatment = 0
[10] = read-out: Vitamins Alone, Vit K3 50% Cytotoxic Dose

O=C1O[C@H]([C@@H](O)CO)C([O-])=C1O.[Na+] [Vitamin C, Sodium Ascorbate]
IC50 (J82; J82, read-out: Vitamins Alone, Vit C 50% Cytotoxic Dose): 376 ± 1 µM | IC50 (RT4; RT-4, read-out: Vitamins Alone, Vit C 50% Cytotoxic Dose): 2430 ± 28 µM | IC50 (SCaBER; [8]): 327 ± 6 µM | IC50 (T24; T-24, read-out: Vitamins Alone, Vit C 50% Cytotoxic Dose): 1490 ± 141 µM | IC50 (TCCSUP; [8]): 297 ± 7 µM | IC50 (MDA-MB-231; MDA-MB-231, read-out: Vitamins Alone, Vit C 50% Cytotoxic Dose): 466 ± 3.23 µM | IC50 (Caki-1; CAKI-1, read-out: Vitamins Alone, Vit C 50% Cytotoxic Dose): 376 ± 1 µM | IC50 (MDAH 2774 cells; Homo sapiens, MDAH 2774, read-out: Vitamins Alone, Vit C 50% Cytotoxic Dose, MDAH, Ovarian): 1530 µM | IC50 (MDAH 2774 cells; read-out: Vitamins Alone, Vit C 50% Cytotoxic Dose, MDAH, Ovarian): 1520 ± 29 µM | IC50 (SKOV3; SK-OV-3, read-out: Vitamins Alone, Vit C 50% Cytotoxic Dose): 755 ± 24.1 µM | IC50 (CWR22; CWR22, read-out: Vitamins Alone, Vit C 50% Cytotoxic Dose): 254 ± 1.02 µM | IC50 (DU145; DU-145, read-out: Vitamins Alone, Vit C 50% Cytotoxic Dose): 2460 ± 28 µM | IC50 (PC3; PC-3, read-out: Vitamins Alone, Vit C 50% Cytotoxic Dose): 2360 ± 39 µM | IC50 (Tera-2; [8]): 1312 ± 10 µM | IC50 (CAOV-3 cell line; Caov-3, read-out: CD50, vitamin C alone): 1360 µM | IC50 (ES-2 cell line; read-out: CD50, VC alone): 197 µM | Variation of Serum HCY (mean ± SD) (prostate cancer; [9]): 0.59 ± 0.508 | Variation of Serum HCY (mean ± SD) (prostate cancer; assay day 15): 0.74 ± 0.349 | Variation of Serum HCY (mean ± SD) (prostate cancer; assay day 22): 1.24 ± 0.448 | Variation of Serum HCY (mean ± SD) (prostate cancer; assay day 29): 1.45 ± 0.498 | Variation of Serum HCY (mean ± SD) (prostate cancer; assay day 36): 1.32 ± 0.448 | Variation of Serum HCY (mean ± SD) (prostate cancer; assay day 42): 1.34 ± 0.486 | difference in serum levels of homocysteine and PSA versus control group (prostate cancer): non-significant difference | increased lifespan ([1]; VC alone 1 g/Kg body weight): 14.7% | mean survival time (terminal cancer; 100 terminal cancer patients, 10 g/day i.v. for 10 days then 10 g/day orally, controls 50 days): more than 210 days | mean survival time (terminal cancer; six ovarian cancer patients, controls 71 days): 148 days | effectiveness of oral Vitamin C (advanced cancer): no benefits | remissions with high doses of i.v. VC [2]: a small number of complete remissions

CC1=CC(=O)c2ccccc2C1=O [Vitamin K3, 2-Methyl-1,4-Naphthoquinone]
IC50 (J82; J82, read-out: Vitamins Alone, Vit K3 50% Cytotoxic Dose): 8.2 ± 0.15 µM | IC50 (RT4; RT-4, read-out: Vitamins Alone, Vit K3 50% Cytotoxic Dose): 12.8 ± 0.03 µM | IC50 (SCaBER; [10]): 9.7 ± 0.15 µM | IC50 (T24; T-24, read-out: Vitamins Alone, Vit K3 50% Cytotoxic Dose): 13.1 ± 0.01 µM | IC50 (TCCSUP; [10]): 6.3 ± 0.06 µM | IC50 (MDA-MB-231; MDA-MB-231, read-out: Vitamins Alone, Vit K3 50% Cytotoxic Dose): 7.1 ± 0.21 µM | IC50 (Caki-1; CAKI-1, read-out: Vitamins Alone, Vit K3 50% Cytotoxic Dose): 19.3 ± 0.33 µM | IC50 (MDAH 2774 cells; Homo sapiens, MDAH 2774, read-out: Vitamins Alone, Vit K3 50% Cytotoxic Dose, MDAH, Ovarian): 41.8 µM | IC50 (SKOV3; SK-OV-3, read-out: Vitamins Alone, Vit K3 50% Cytotoxic Dose): 22 ± 1.93 µM | IC50 (CWR22; CWR22, read-out: Vitamins Alone, Vit K3 50% Cytotoxic Dose): 4.1 ± 0.33 µM | IC50 (DU145; DU-145, read-out: Vitamins Alone, Vit K3 50% Cytotoxic Dose): 12.9 ± 0.81 µM | IC50 (PC3; PC-3, read-out: Vitamins Alone, Vit K3 50% Cytotoxic Dose): 11.4 ± 0.13 µM | IC50 (Tera-2; [10]): 21.8 ± 0.73 µM | IC50 (CAOV-3 cell line; Caov-3, read-out: CD50, VK3 alone): 22 µM | IC50 (ES-2 cell line; read-out: CD50, VK alone): 25 µM | Variation of Serum HCY (mean ± SD) (prostate cancer; [9]): 0.468 ± 0.362 | Variation of Serum HCY (mean ± SD) (prostate cancer; assay day 15): 0.59 ± 0.227 | Variation of Serum HCY (mean ± SD) (prostate cancer; assay day 22): 0.68 ± 0.210 | Variation of Serum HCY (mean ± SD) (prostate cancer; assay day 29): 0.76 ± 0.341 | Variation of Serum HCY (mean ± SD) (prostate cancer; assay day 36): 1.12 ± 0.400 | Variation of Serum HCY (mean ± SD) (prostate cancer; assay day 42): 1.3 ± 0.432 | difference in serum levels of homocysteine and PSA versus control group (prostate cancer): non-significant difference | toxicity to livers [3]: no toxicity | increased lifespan ([1]; VK3 alone 0.01 g/Kg body weight): 1.07% | long term survivors (hepatoma): 5 out of 16 | survival (hepatoma; control rats 17 days): 60 days | inhibition of tumor growth (tumor growth; VK3 225 mg/kg/day with methotrexate): 84% | inhibition of tumor growth (tumor growth; menadione 250 mg/kg/day with methotrexate 0.75 mg/kg/day): 99% | circulating levels of VK3 that induce synergism with methotrexate (tumor growth; rat, in vivo): ≥ 1 µM | toxicity in phase I clinical trials [4]: without any appreciable toxicity | maximum tolerated dose of VK3 ([5]; 48-hour intravenous infusion, followed by mitomycin C 15 mg/m2 every four weeks): 2.5 g/m^2 | tolerability ([5]; i.v., in conjunction with mitomycin C, Phase I and Phase II trials): well tolerated | hemolysis at maximum tolerated dose ([5]; with mitomycin C every four weeks): no hemolysis | median survival (advanced lung cancer; VK3 in combination with mitomycin C, 23 patients): 5.5 months | patients exhibiting hematologic toxicity (advanced lung cancer; VK3 with mitomycin C): 30% | patients exhibiting some tumor regression (advanced lung cancer; VK3 with mitomycin C): 26% | response to therapy (gastrointestinal cancer): no objective response | solubility [6]: water soluble | LD50 [7]: 500 mg/kg

O=P1(N(CCCl)CCCl)NCCCO1 (stereo not shown) [cyclophosphamide]
ILS ([1]; single dose of cyclophosphamide 80 mg/kg body weight): 23% | MST ([1]; single dose of cyclophosphamide 80 mg/kg body weight, untreated 16.8 days): 20.6 days

CC[C@]1(O)C[C@H]2CN(CCc3c([nH]c4ccccc34)[C@@](C(=O)OC)(c3cc4c(cc3OC)N(C=O)[C@H]3[C@@](O)(C(=O)OC)[C@H](OC(C)=O)[C@]5(CC)C=CCN6CC[C@]43[C@@H]65)C2)C1 [Oncovin, vincristine sulfate]
MST ([1]; second study, each agent alone, Oncovin 0.3 mg/kg): 19.0 days
